Measurements reported in patent US8895585B2, “Nicotinamide derivative or salt thereof” (FUJIFILM Corporation, priority 2010, dated 2014).

What follows are molecules tested against T1, glutathione S-transferase (GST)-fused full-length human Syk protein (Homo sapiens, UniProt P43405) (assay: Syk enzyme assay). Details: Syk enzyme assay, Test Example 1; read-out: IC50 of Syk-inhibitory activity.
T1 construct: (GST)-fused full-length human Syk protein; GST (glutathione S-transferase); purchased Carna Biosciences
Assay type: biochemical
In short: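 IC50 values come from a time-resolved FRET readout (615 and 665 nm) of substrate phosphorylation, measured after an EDTA stop and 1 h antibody binding. The kinase reaction ran 40 min at room temperature with 27 μM ATP and 0.4 μM biotin-peptide, following a 15 min compound preincubation with baculovirus-made GST-full-length human Syk.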

SMILES | IC50 [nM]
NC(=O)c1cc(F)c(NC2CCCCC2N)nc1Nc1cncc(C2CCCC2)c1 (stereo not shown) [Example 002-094] | 10 to 50
NC(=O)c1cc(F)c(NC2CCCCC2N)nc1Nc1cncc(C2=CCCCC2)c1 (stereo not shown) [Example 002-095] | < 10
COCC(C)Oc1ccc2cc(Nc3nc(NC4CCCCC4N)c(F)cc3C(N)=O)ccc2n1 (stereo not shown) [Example 002-098] | < 10
COCCOc1nccc2c(Nc3nc(NC4CCCCC4N)c(F)cc3C(N)=O)cccc12 (stereo not shown) [Example 002-102] | 10 to 50
CCOc1ccc2cc(Nc3nc(NC4CCCCC4N)c(F)cc3C(N)=O)ccc2n1 (stereo not shown) [Example 002-103] | < 10
CCCOc1ccc2cc(Nc3nc(NC4CCCCC4N)c(F)cc3C(N)=O)ccc2n1 (stereo not shown) [Example 002-104] | < 10
CCC(C)COc1ccc2cc(Nc3nc(NC4CCCCC4N)c(F)cc3C(N)=O)ccc2n1 (stereo not shown) [Example 002-106] | 50 to 100
COc1nc2ccc(Nc3nc(NC4CCCCC4N)c(F)cc3C(N)=O)cc2nc1OC (stereo not shown) [Example 002-119] | < 10
COCCOc1nc2ccc(Nc3nc(NC4CCCCC4N)c(F)cc3C(N)=O)cc2nc1OCCOC (stereo not shown) [Example 002-121] | 100 to 1000
Cc1ncc(Nc2nc(NC3CCCCC3N)c(F)cc2C(N)=O)cc1-n1cccn1 (stereo not shown) [Example 002-135] | 10 to 50
COc1ccc(-c2cc(Nc3nc(NC4CCCCC4N)c(F)cc3C(N)=O)ccn2)c(OC)c1 (stereo not shown) [Example 002-136] | 50 to 100
Cc1ncc(Nc2nc(NC3CCCCC3N)c(F)cc2C(N)=O)cc1-n1cncn1 (stereo not shown) [Example 002-138] | 50 to 100
NC(=O)c1cc(F)c(NC2CCCCC2N)nc1Nc1ccc2cc(-n3cccn3)cnc2c1 (stereo not shown) [Example 002-143] | < 10
NC(=O)c1cc(F)c(NC2CCCCC2N)nc1Nc1ccnc(-c2cccc(Cl)c2F)c1 (stereo not shown) [Example 002-146] | < 10
COc1ncc(Nc2nc(NC3CCCCC3N)c(F)cc2C(N)=O)cc1-c1ccccc1 (stereo not shown) [Example 002-148] | 10 to 50
COc1ncc(Nc2nc(NC3CCCCC3N)c(F)cc2C(N)=O)cc1-c1ccccc1F (stereo not shown) [Example 002-149] | 10 to 50

SMILES | IC50 [nM]
COc1ncc(Nc2nc(NC3CCCCC3N)c(F)cc2C(N)=O)cc1-c1ccco1 (stereo not shown) [Example 002-150] | 10 to 50
COc1ncc(Nc2nc(NC3CCCCC3N)c(F)cc2C(N)=O)cc1-c1ccoc1 (stereo not shown) [Example 002-151] | 10 to 50
COc1ncc(Nc2nc(NC3CCCCC3N)c(F)cc2C(N)=O)cc1C1CC1 (stereo not shown) [Example 002-153] | 10 to 50
COc1ncc(Nc2nc(NC3CCCCC3N)c(F)cc2C(N)=O)cc1-n1cccn1 (stereo not shown) [Example 002-154] | 10 to 50
NC(=O)c1cc(F)c(NC2CCCCC2N)nc1Nc1ccc(N2CCCC2=O)nc1 (stereo not shown) [Example 002-156] | 50 to 100
NC(=O)c1cc(F)c(NC2CCCCC2N)nc1Nc1ccc(N2CCOCC2=O)nc1 (stereo not shown) [Example 002-162] | 100 to 1000
COc1cc(-c2cncc(Nc3nc(NC4CCCCC4N)c(F)cc3C(N)=O)c2)cc(OC)c1OC (stereo not shown) [Example 002-171] | 50 to 100
NC(=O)c1cc(F)c(NC2CCCCC2N)nc1Nc1ccnc(-c2ccc3c(c2)OCO3)c1 (stereo not shown) [Example 002-176] | < 10
NC(=O)c1cc(F)c(NC2CCCCC2N)nc1Nc1ccnc(-c2cccc3cnccc23)c1 (stereo not shown) [Example 002-180] | 50 to 100
NC(=O)c1cc(F)c(NC2CCCCC2N)nc1Nc1cncc(-c2cccc3cccnc23)c1 (stereo not shown) [Example 002-181] | 50 to 100
COc1cccc(-c2cc(Nc3nc(NC4CCCCC4N)c(F)cc3C(N)=O)ccn2)c1 (stereo not shown) [Example 002-183] | < 10
NC(=O)c1cc(F)c(NC2CCCCC2N)nc1Nc1ccnc(-c2ccc3cccnc3c2)c1 (stereo not shown) [Example 002-192] | < 10
NC(=O)c1cc(F)c(NC2CCCCC2N)nc1Nc1cnc2oc3ccccc3c2c1 (stereo not shown) [Example 002-195] | < 10
Cn1cc(Nc2nc(NC3CCCCC3N)c(F)cc2C(N)=O)ccc1=O (stereo not shown) [Example 002-202] | 100 to 1000
COc1ncc(Nc2nc(NC3CCCCC3N)c(F)cc2C(N)=O)cc1Cl (stereo not shown) [Example 002-203] | 10 to 50
CNC(=O)c1cncc(Nc2nc(N[C@@H]3CCCC[C@@H]3N)c(F)cc2C(N)=O)c1 [Example 004-010] | 10 to 50

More lines, now with the values ahead:

IC50 [nM] | SMILES
10 to 50 | COc1ccnc2cc(Nc3nc(NC4CCCCC4N)c(F)cc3C(N)=O)ccc12 (stereo not shown) [Example 002-089]
< 10 | COCCOc1ccc2ccc(Nc3nc(NC4CCCCC4N)c(F)cc3C(N)=O)cc2n1 (stereo not shown) [Example 002-090]
< 10 | COCC(C)Oc1ccc2ccc(Nc3nc(NC4CCCCC4N)c(F)cc3C(N)=O)cc2n1 (stereo not shown) [Example 002-091]
< 10 | COC(C)CCOc1ccc2ccc(Nc3nc(NC4CCCCC4N)c(F)cc3C(N)=O)cc2n1 (stereo not shown) [Example 002-092]
< 10 | CCOCCOCCOc1ccc2ccc(Nc3nc(NC4CCCCC4N)c(F)cc3C(N)=O)cc2n1 (stereo not shown) [Example 002-093]
10 to 50 | NC(=O)c1cc(F)c(NC2CCCCC2N)nc1Nc1cncc(C2CCCCC2)c1 (stereo not shown) [Example 002-096]
< 10 | COC(C)CCOc1ccc2cc(Nc3nc(NC4CCCCC4N)c(F)cc3C(N)=O)ccc2n1 (stereo not shown) [Example 002-099]
< 10 | COc1ccc2cc(Nc3nc(NC4CCCCC4N)c(F)cc3C(N)=O)ccc2n1 (stereo not shown) [Example 002-101]
10 to 50 | CC(C)COc1ccc2cc(Nc3nc(NC4CCCCC4N)c(F)cc3C(N)=O)ccc2n1 (stereo not shown) [Example 002-105]
< 10 | CCOCCOc1ccc2cc(Nc3nc(NC4CCCCC4N)c(F)cc3C(N)=O)ccc2n1 (stereo not shown) [Example 002-107]
10 to 50 | CCCCOCCOc1ccc2cc(Nc3nc(NC4CCCCC4N)c(F)cc3C(N)=O)ccc2n1 (stereo not shown) [Example 002-108]
10 to 50 | CC(C)COCCOc1ccc2cc(Nc3nc(NC4CCCCC4N)c(F)cc3C(N)=O)ccc2n1 (stereo not shown) [Example 002-109]
10 to 50 | CCCCOCCOCCOc1ccc2cc(Nc3nc(NC4CCCCC4N)c(F)cc3C(N)=O)ccc2n1 (stereo not shown) [Example 002-111]
< 10 | NC(=O)c1cc(F)c(NC2CCCCC2N)nc1Nc1ccc2nc(OCC3CCCO3)ccc2c1 (stereo not shown) [Example 002-112]
50 to 100 | COCCn1c(=O)ccc2cc(Nc3nc(NC4CCCCC4N)c(F)cc3C(N)=O)cnc21 (stereo not shown) [Example 002-116]
< 10 | CCOc1nc2ccc(Nc3nc(NC4CCCCC4N)c(F)cc3C(N)=O)cc2nc1OCC (stereo not shown) [Example 002-120]
< 10 | CN1CCOc2nc3ccc(Nc4nc(NC5CCCCC5N)c(F)cc4C(N)=O)cc3nc21 (stereo not shown) [Example 002-122]
< 10 | CCc1nc2ccc(Nc3nc(NC4CCCCC4N)c(F)cc3C(N)=O)cc2nc1CC (stereo not shown) [Example 002-124]
10 to 50 | CC1CN(c2ccc(Nc3nc(NC4CCCCC4N)c(F)cc3C(N)=O)cn2)CC(C)O1 (stereo not shown) [Example 002-127]
100 to 1000 | NCCNCCNc1nc(Nc2ccc3ncccc3c2)c(C(N)=O)cc1F [Example 002-128]
100 to 1000 | NCCNCCNc1nc(Nc2ccnc(-n3nccn3)c2)c(C(N)=O)cc1F [Example 002-129]
100 to 1000 | NCCNCCNc1nc(Nc2ccnc(-n3cncn3)c2)c(C(N)=O)cc1F [Example 002-130]

IC50 [nM] | SMILES
10 to 50 | COc1ccccc1-c1cc(Nc2nc(NC3CCCCC3N)c(F)cc2C(N)=O)ccn1 (stereo not shown) [Example 002-132]
< 10 | NC(=O)c1cc(F)c(NC2CCCCC2N)nc1Nc1ccnc(-c2ccc(F)cc2F)c1 (stereo not shown) [Example 002-133]
< 10 | NC(=O)c1cc(F)c(NC2CCCCC2N)nc1Nc1ccnc(-c2cc(F)ccc2F)c1 (stereo not shown) [Example 002-145]
< 10 | NC(=O)c1cc(F)c(NC2CCCCC2N)nc1Nc1ccnc(-c2cc(Cl)ccc2F)c1 (stereo not shown) [Example 002-147]
10 to 50 | COc1ncc(Nc2nc(NC3CCCCC3N)c(F)cc2C(N)=O)cc1C (stereo not shown) [Example 002-152]
100 to 1000 | NC(=O)c1cc(F)c(NC2CCCCC2N)nc1Nc1ccc(N2CCCCC2=O)nc1 (stereo not shown) [Example 002-157]
100 to 1000 | CC1(C)Oc2cccnc2N(c2ccc(Nc3nc(NC4CCCCC4N)c(F)cc3C(N)=O)cn2)C1=O (stereo not shown) [Example 002-159]
50 to 100 | NC(=O)c1cc(F)c(NC2CCCCC2N)nc1Nc1ccc(-n2nccn2)nc1 (stereo not shown) [Example 002-161]
50 to 100 | Cc1cc(Nc2nc(NC3CCCCC3N)c(F)cc2C(N)=O)c(F)cn1 (stereo not shown) [Example 002-164]
100 to 1000 | NC(=O)c1cc(F)c(NC2CCCCC2N)nc1Nc1cc(N2CCOCC2)ncc1F (stereo not shown) [Example 002-166]
10 to 50 | NC(=O)c1cc(F)c(NC2CCCCC2N)nc1Nc1ccnc(-c2ccccc2)c1F (stereo not shown) [Example 002-167]
10 to 50 | NC(=O)c1cc(F)c(NC2CCCCC2N)nc1Nc1cc(-c2ccccc2)ncc1F (stereo not shown) [Example 002-168]
50 to 100 | NC(=O)c1cc(F)c(NC2CCCCC2N)nc1Nc1cncc(-c2ccc(OC(F)(F)F)cc2)c1 (stereo not shown) [Example 002-174]
< 10 | NC(=O)c1cc(F)c(NC2CCCCC2N)nc1Nc1cncc(-c2ccc3c(c2)NC(=O)CO3)c1 (stereo not shown) [Example 002-177]
< 10 | NC(=O)c1cc(F)c(NC2CCCCC2N)nc1Nc1ccnc(-c2ccc3c(c2)NC(=O)CO3)c1 (stereo not shown) [Example 002-178]
50 to 100 | NC(=O)c1cc(F)c(NC2CCCCC2N)nc1Nc1cncc(-c2cccc3cnccc23)c1 (stereo not shown) [Example 002-179]
100 to 1000 | NC(=O)c1cc(F)c(NC2CCCCC2N)nc1Nc1ccnc(-c2cccc3cccnc23)c1 (stereo not shown) [Example 002-182]
< 10 | COc1ccc(-c2cc(Nc3nc(NC4CCCCC4N)c(F)cc3C(N)=O)ccn2)cc1 (stereo not shown) [Example 002-184]
< 10 | NC(=O)c1cc(F)c(NC2CCCCC2N)nc1Nc1ccnc(-c2ccc3ccncc3c2)c1 (stereo not shown) [Example 002-194]
100 to 1000 | NC(=O)c1cc(F)c(N[C@@H]2CCCC[C@@H]2N)nc1Nc1cncnc1 [Example 004-001]
< 10 | NC(=O)c1cc(F)c(N[C@@H]2CCCC[C@@H]2N)nc1Nc1cccc2c1CNC2=O [Example 004-009]
100 to 1000 | CN(C)C(=O)c1cncc(Nc2nc(N[C@@H]3CCCC[C@@H]3N)c(F)cc2C(N)=O)c1 [Example 004-015]
